Data: the NIST ThermoML archive (doi:10.1016/j.jct.2016.07.001)
Numbers after ± are expanded uncertainties.

Experiments:
[1] = Molar enthalpy of transition or fusion; conditions: Crystal; DSC
[2] = Crystal; DTA

O=S(=O)(c1ccc(O)cc1)c1ccccc1O [2,4'-dihydroxydiphenyl sulfone]
Molar enthalpy of transition or fusion [1]: 10.2 ± 0.263 kcal/mol | Normal melting temperature [2]: 182.20 ± 1.1 °C
